Holding throughout (assay): combination Emax (second highest fraction inhibited in the dose matrix, 72 h); higher = more inhibition; extreme values may be limits of the assay
Experiment [1] concerns HuH-7 (Hepatocellular Carcinoma). Put shortly:
(§1)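 Cell lines grown in DMEM/F12 or RPMI with 10% FBS were plated in 1536-well plates and held 24 hours at 37°C, 5% CO2 before 72 hours of exposure to two-drug dose matrices, with DMSO typically at 0.2%. CellTiter-Glo 2.0 luminescence gave viability, which was converted to inhibition. Vehicle wells were set to 0 and blank wells to 1. Combination Emax is the second-highest inhibition in the matrix, and Bliss excess is the observed combination effect minus the expected EA + EB − EA·EB, where EA and EB are the single-agent effects.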

Experiment [2] concerns OVCAR-5 (Ovarian Carcinoma). In a few lines:
as §1

Experiment [3] relates to MPP-89 (Mesothelioma). In a few lines: as §1
The test system of experiment [4] is SNU-449 (Hepatocellular Carcinoma). Put shortly:
as §1

The test system of experiment [5] is SNU-16 (Gastric Carcinoma). In a few lines:
as §1

Experiment [6] relates to NCI-H524 (Small Cell Lung Carcinoma). Put shortly:
as §1

Experiment [7] relates to BE2-M17 (Neuroblastoma). Put shortly: as §1
Experiment [8] has as its system BPH-1 (Non-Cancerous). In a few lines:
as §1

Experiment [9] relates to FTC-133 (Thyroid Gland Carcinoma). In a few lines: as §1
The subject of experiment [10] is HeLa (Cervical Carcinoma). In a few lines:
as §1

In experiment [11] the test system is OV-56 (Ovarian Carcinoma). Put shortly: as §1
For experiment [12], the system named is NCI-H2722 (Mesothelioma). Put shortly:
as §1

Experiment [13] has as its system CAL-33 (Oral Cavity Carcinoma). In a few lines: as §1
The test system of experiment [14] is LNZTA3WT4 (Low Grade Glioma). In a few lines: as §1
The subject of experiment [15] is SW1573 (Lung Adenocarcinoma). In a few lines:
as §1

In experiment [16] the test system is NCI-H1568 (Lung Adenocarcinoma). Put shortly: as §1
In experiment [17] the test system is Detroit562 (Head and Neck Carcinoma). Put shortly: as §1
The test system of experiment [18] is MHH-CALL-2 (B-Lymphoblastic Leukemia). In a few lines: as §1
Experiment [19] has as its system LOXIMVI (Melanoma). Put shortly: as §1
The test system of experiment [20] is HH (T-Cell Non-Hodgkin's Lymphoma). In a few lines:
as §1

With `CS(=O)(=O)CCNCc1ccc(-c2ccc3ncnc(Nc4ccc(OCc5cccc(F)c5)c(Cl)c4)c3c2)o1` [Lapatinib] + C[C@@H](Oc1cc(-c2cnn(C3CCNCC3)c2)cnc1N)c1c(Cl)ccc(F)c1Cl [Crizotinib] (first compound max 10 µM, 7x7, partner max 10 µM), the “combination Emax” value in experiment [1] stood at 0.925; in experiment [2] it was 0.834; in [3] it was 0.696; in experiment [4] it was 0.827; in experiment [5], 0.973; in experiment [6], 0.952. The “combination Emax” value in [7] is 0.868; in experiment [8], 0.949; in [9], 0.84; in experiment [10], 0.859; in experiment [11], 0.872; in [12], 0.449. Further, the “combination Emax” value in experiment [13] amounted to 0.989; in experiment [14], 0.872; in experiment [15] it was 0.462; in experiment [16] it was 0.952; in experiment [17], 1; in experiment [18], 1. In addition, the “combination Emax” value in experiment [19] was found to be 0.977; in experiment [20] it was 0.327.

Take `CC(=O)c1c(C)c2cnc(Nc3ccc(N4CCNCC4)cn3)nc2n(C2CCCC2)c1=O` [Palbociclib] + CC1(C)CCC(CN2CCN(c3ccc(C(=O)NS(=O)(=O)c4ccc(NCC5CCOCC5)c([N+](=O)[O-])c4)c(Oc4cnc5[nH]ccc5c4)c3)CC2)=C(c2ccc(Cl)cc2)C1 [Venetoclax] (first compound max 10 µM, 7x7, partner max 1 µM): the “combination Emax” value in experiment [1] came to 0.0832; in experiment [2], 0.346; in experiment [3], 0.0837; in [4], 0.272; in experiment [5], 0.699; in experiment [6] it was 0.685. The “combination Emax” value turned out to be 0.386 in experiment [7]; 0.153 in experiment [8]; 0.0919 in [9]; 0.0741 in [10]; 0.117 in [11]; 0.118 in [12]. For the same compound, the “combination Emax” value in [13] stood at 0.113; in experiment [14] it was 0.307; in experiment [15], 0.204; in experiment [16], 0.423; in [17], 0.543; in experiment [18] it was 0.155. Besides, the figures for the “combination Emax” value in experiment [19] and in experiment [20] were 0.515 and 0.343, respectively.

As to `CC(=O)c1c(C)c2cnc(Nc3ccc(N4CCNCC4)cn3)nc2n(C2CCCC2)c1=O` [Palbociclib] + Cc1c2c(nn1C)CSCc1cc(n(C)n1)CSc1cc(c3ccccc3c1)OCCCc1c(C(=O)O)n(C)c3c-2c(Cl)ccc13 [AZD5991] (first compound max 10 µM, 7x7, partner max 1 µM), the “combination Emax” value is 0.215 in experiment [1]; 0.389 in experiment [2]; 0.261 in experiment [3]; 0.335 in experiment [4]; 0.973 in experiment [5]; 0.808 in experiment [6]. The “combination Emax” value was 0.409 in [7]; 0.281 in experiment [8]; 0.18 in experiment [9]; 0.39 in experiment [10]; 0.0925 in experiment [11]; 0.213 in experiment [12]. Moreover, the “combination Emax” value came out at 0.291 in experiment [13]; 0.411 in experiment [14]; 0.2 in [15]; 0.418 in experiment [16]; 0.569 in [17]; 0.998 in experiment [18]. Besides, the “combination Emax” value worked out at 0.543 in experiment [19] and 0.911 in experiment [20].

On to `CC(=O)c1c(C)c2cnc(Nc3ccc(N4CCNCC4)cn3)nc2n(C2CCCC2)c1=O` [Palbociclib] + Cn1cnc2c(F)c(Nc3ccc(Br)cc3Cl)c(C(=O)NOCCO)cc21 [Selumetinib] (first compound max 10 µM, 7x7, partner max 10 µM), for which the “combination Emax” value in [1] is 0.344; in experiment [2], 0.587; in experiment [3] it was 0.14; in experiment [4], 0.338; in [5], 0.771; in experiment [6] it was 0.739. The “combination Emax” value in [7] was found to be 0.606; in experiment [8] it was 0.518; in experiment [9] it was 0.202; in [10], 0.104; in experiment [11] it was 0.141; in [12] it was 0.113. In addition, the “combination Emax” value is 0.382 in [13]; 0.333 in experiment [14]; 0.164 in experiment [15]; 0.206 in experiment [16]; 0.588 in experiment [17]; 0.31 in [18]. The “combination Emax” value in experiment [19] is 0.744; in experiment [20] it was 0.407.

As for `COc1cccc(OCCCN)c1-c1cc(Nc2cnc(C#N)cn2)n[nH]1` [Prexasertib] + CCc1c2c(nc3ccc(O)cc13)-c1cc3c(c(=O)n1C2)COC(=O)[C@]3(O)CC [SN-38] (first compound max 1 µM, 7x7, partner max 0.3 µM), the “combination Emax” value is 0.861 in [1]; 0.89 in experiment [2]; 0.897 in [3]; 0.531 in [4]; 1 in [5]; 1 in experiment [6]. The “combination Emax” value was 0.999 in experiment [7]; 0.972 in [8]; 1 in [9]; 0.865 in experiment [10]; 0.996 in experiment [11]; 0.471 in experiment [12]. Moreover, the “combination Emax” value worked out at 0.957 in experiment [13]; 0.949 in experiment [14]; 0.925 in experiment [15]; 0.848 in experiment [16]; 1 in [17]; 1 in experiment [18]. For the same compound, the “combination Emax” value is 0.875 in experiment [19] and 0.829 in experiment [20].

`Cn1cnc2c(F)c(Nc3ccc(Br)cc3Cl)c(C(=O)NOCCO)cc21` [Selumetinib] + C=CCn1c(=O)c2cnc(Nc3ccc(N4CCN(C)CC4)cc3)nc2n1-c1cccc(C(C)(C)O)n1 [AZD1775] (first compound max 10 µM, partner max 1 µM): the “combination Emax” value was 0.327 in experiment [1]; 0.58 in [2]; 0.566 in experiment [3]; 0.129 in [4]; 0.802 in [5]; 0.617 in experiment [6]. Further, the “combination Emax” value in experiment [7] was 0.887; in [8], 0.535; in experiment [9], 0.778; in [10], 0.437; in experiment [11], 0.0799; in experiment [12], 0.304. Further, the “combination Emax” value came out at 0.836 in experiment [13]; 0.57 in [14]; 0.361 in experiment [15]; 0.489 in experiment [16]; 0.639 in [17]; 0.793 in [18]. Further, the “combination Emax” value was determined as 0.854 in experiment [19] and 0.0977 in experiment [20].

As to `Cn1cnc2c(F)c(Nc3ccc(Br)cc3Cl)c(C(=O)NOCCO)cc21` [Selumetinib] + CC(C)n1c(=O)n(C)c2cnc3cc(F)c(-c4ccc(OCCCN5CCCCC5)nc4)cc3c21 [AZD1390] (first compound max 10 µM, 7x7, partner max 0.3 µM), the “combination Emax” value in experiment [1] was 0.275; in experiment [2] it was 0.563; in experiment [3], 0.0892; in experiment [4], 0.16; in experiment [5], 0.36; in [6], 0.0936. The “combination Emax” value stood at 0.508 in experiment [7]; 0.487 in experiment [8]; 0.166 in experiment [9]; 0.0672 in experiment [10]; 0.133 in experiment [11]; 0.0639 in [12]. Further, the “combination Emax” value in [13] turned out to be 0.755; in experiment [14], 0.226; in [15] it was 0; in [16], 0.142; in [17] it was 0.367; in experiment [18] it was 0.256. Moreover, the “combination Emax” value in experiment [19] came to 0.658; in experiment [20] it was 0.198.

The values are drawn from the supplement of paper PMC11061612.
